Experiments:
[1] = tested on: mice; experiment: Suppression of Spontaneous Motility; type: in vivo, dd-strain, male; conditions: Mus musculus, ip; counted for 20 minutes, 40 minutes after administration; dose for 50 percent suppression
Method: The spontaneous motility of mice was counted by magnetic counter of photocell method according to P. B. Dews in "British Gournal of Pharmacology", vol. 8, p. 46 ff. (1953). Forty minutes after the intraperitoneal administration of the test compound, the spontaneous motility was counted for 20 minutes.

[2] = tested on: mice; experiment: Suppression of Fighting Behavior; type: in vivo, dd-strain, female; conditions: Mus musculus, po, 60 minutes prior to electric foot-shock; dose to suppress 50 percent of fighting pairs
Method: 125, p. 28 ff. (1959). […] The ED50, the dose required to suppress 50 percent of fighting pairs, was determined graphically.

[3] = tested on: mice; experiment: Reserpine Potentiation; type: in vivo, dd-strain, female; conditions: Mus musculus, po, 30 minutes before reserpine 10 mg./kg. i.p.; dose potentiating reserpine effect by 30 percent 15 minutes after reserpine; read-out: Reserpine Potentiation PD30
Method: Reserpine potentiation was measured by the method described by M. D. Aceto in "Toxicology and Applied Pharmacology," vol. 7, p. 329 ff. (1965). […] The degree of blepharoptosis of both eyes was observed 15, 60, 120 and 180 minutes after the administration of reserpine.

[4] = tested on: mice; experiment: Antimescaline Effect; type: in vivo, female; conditions: Mus musculus, po, 60 minutes prior to mescaline sulfate 30 mg./kg. i.p.; prevention of scratching in 50 percent of animals
Method: A modification of the method of R. A. Turner [Screening Method in Pharmacology, Edited by R. A. Turner, p. 73, Academic Press (1965)] was used to study the prevention of scratching episodes induced by mescaline. The test compound was given to groups each of 6 female mice orally 60 minutes prior to treatment with mescaline sulfate (30 mg./kg. of body weight, intraperitoneal).

[5] = Acute Toxicity; parameters: species or system mice, female; conditions: mouse, in vivo, po; lethal rate within two days
Method: The test compound was orally administered to groups each of 5 female mice respectively. The LD50 was calculated from the lethal rate (50 percent) within two days after administration of the test compound.

[6] = tested on: mice; experiment: Methamphetamine Group Toxicity; conditions: Mus musculus, po, 5 h, read-out: Methamphetamine Group Toxicity, ED50

| SMILES | ED50 [1] | ED50 [2] | ED30 [3] | ED50 [4] | LD50 at 48 h [5] | ED50 [6] |
| --- | --- | --- | --- | --- | --- | --- |
| NC(=O)C1(N2CCCCC2)CCN(CCCC(=O)c2ccc(F)cc2)CC1 [Floropipamide] | 1 mg/kg | 5.6 mg/kg | 2.5 mg/kg | 1 mg/kg | > 1000 mg/kg | 9.2 mg/kg |
| CN1C(=O)C2CSC3(CCN(CCCC(=O)c4ccc(F)cc4)CC3)N2C1=O (stereo not drawn) [Compound A, 5,7-dioxo-6-methylimidazolido[1,5-c]thiazolidine-3-spiro-4'-[1'-(4-p-fluorophenyl-4-oxobutyl)piperidine]] | 0.1 mg/kg | 2.6 mg/kg | 1.9 mg/kg | 0.1 mg/kg | > 1000 mg/kg | 1.1 mg/kg |
